Test results: patent US9751837B2, “Kinase inhibitors” (RESPIVERT LIMITED, priority 2014, dated 2017)

Molecular target: GSK 3α (Homo sapiens (Human), UniProt P49840)
Experiment: GSK 3α enzyme inhibition (Method 2), Z-LYTE FRET
Assay type: biochemical
Details: read-out: IC50 Values for Enzyme Inhibition GSK3α
Protocol: The enzyme inhibitory activities of compounds disclosed herein are determined by FRET using synthetic peptides labelled with both donor and acceptor fluorophores (Z-LYTE, Invitrogen Ltd., Paisley, UK).
The following two assay variants can be used for determination of GSK 3α inhibition.
The inhibitory activities of compounds of the invention against the GSK 3α enzyme isoform (Invitrogen), are evaluated by determining the level of activation/phosphorylation of the target peptide. The GSK3-α protein (500 ng/mL, 2.5 μL) is mixed with the test compound (2.5 μL at either 4 μg/mL, 0.4 μg/mL, 0.04 μg/mL, or 0.004 μg/mL) for 2 hr at RT. The FRET peptide (8 μM, 2.5 μL), which is a phosphorylation target for GSK3α, and ATP (40 μM, 2.5 μL) are then added to the enzyme/compound mixture and the resulting mixture incubated for 1 hr. Development reagent (protease, 5 μL) is added for 1 hr prior to detection in a fluorescence microplate reader (Varioskan® Flash, ThermoFisher Scientific).
In all cases, the site-specific protease cleaves non-phosphorylated peptide only and eliminates the FRET signal. Phosphorylation levels of each reaction are calculated using the ratio of coumarin emission (donor) over fluorescein emission (acceptor), for which high ratios indicate high phosphorylation and low ratios indicate low phosphorylation levels.
This method follows the same steps as Method 1 above, but utilises a shorter period of mixing of the test compound (105 minutes instead of 2 hours) with the GSK3-α protein. In addition, the concentrations of test compound employed are either 10 μg/mL, 1 μg/mL, 0.1 μg/mL, or 0.01 μg/mL

Chain of GSK 3α (P49840 whole entry): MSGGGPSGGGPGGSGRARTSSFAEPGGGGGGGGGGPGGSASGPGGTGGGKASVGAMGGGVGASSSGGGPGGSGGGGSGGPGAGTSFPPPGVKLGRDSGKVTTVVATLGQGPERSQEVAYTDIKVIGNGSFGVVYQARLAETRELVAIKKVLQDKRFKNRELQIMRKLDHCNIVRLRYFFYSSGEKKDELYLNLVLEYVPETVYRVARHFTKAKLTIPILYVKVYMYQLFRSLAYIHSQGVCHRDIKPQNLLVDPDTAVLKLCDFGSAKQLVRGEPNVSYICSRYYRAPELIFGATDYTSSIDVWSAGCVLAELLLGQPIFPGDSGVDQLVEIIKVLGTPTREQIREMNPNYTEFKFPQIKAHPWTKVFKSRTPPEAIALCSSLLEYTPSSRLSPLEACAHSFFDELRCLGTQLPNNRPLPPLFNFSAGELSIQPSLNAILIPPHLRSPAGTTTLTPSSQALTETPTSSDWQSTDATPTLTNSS

IC50 [nM]	SMILES
594	COc1cc(Nc2nccc(Oc3ccc(NC(=O)Nc4cc(C(C)(C)C)cc(NS(C)(=O)=O)c4OC)c4ccccc34)n2)ccc1C(=O)NCCN1CCOCC1 [17(i), 4-[[4-[[4-[[5-tert-butyl-3-(methanesulfonamido)-2-methoxy-phenyl]carbamoylamino]-1-naphthyl]oxy]pyrimidin-2-yl]amino]-2-methoxy-N-(2-morpholinoethyl)benzamide]
> 11900	COc1cc(Nc2cc(Oc3ccc(NC(=O)Nc4cc(C(C)(C)C)cc(NS(C)(=O)=O)c4OC)c4ccccc34)ccn2)ccc1C(=O)NCCN1CCOCC1(C)C [17(k), 4-[[4-[[4-[[5-tert-butyl-3-(methanesulfonamido)-2-methoxy-phenyl]carbamoylamino]-1-naphthyl]oxy]-2-pyridyl]amino]-N-[2-(3,3-dimethylmorpholin-4-yl)ethyl]-2-methoxy-benzamide]
> 12100	COc1cc(Nc2cc(Oc3ccc(NC(=O)Nc4cc(C(C)(C)C)cc(NS(C)(=O)=O)c4OC)c4ccccc34)ccn2)ccc1C(=O)NCCN1CCSCC1 [17(l), 4-[[4-[[4-[[5-tert-butyl-3-(methanesulfonamido)-2-methoxy-phenyl]carbamoylamino]-1-naphthyl]oxy]-2-pyridyl]amino]-2-methoxy-N-(2-thiomorpholinoethyl)benzamide]
2770	COc1cc(Nc2cc(Oc3ccc(NC(=O)Nc4cc(C(C)(C)C)cc(NS(C)(=O)=O)c4OC)c4ccccc34)ccn2)ccc1C(=O)NCCN1CCC(O)CC1 [17(m), 4-[[4-[[4-[[5-tert-butyl-3-(methanesulfonamido)-2-methoxy-phenyl]carbamoylamino]-1-naphthyl]oxy]-2-pyridyl]amino]-N-[2-(4-hydroxy-1-piperidyl)ethyl]-2-methoxy-benzamide]
> 11900	COc1cc(Nc2cc(Oc3ccc(NC(=O)Nc4cc(C(C)(C)C)cc(NS(C)(=O)=O)c4OC)c4ccccc34)ccn2)ccc1C(=O)NCC(C)(C)N1CCOCC1 [17(n), 4-[[4-[[4-[[5-tert-butyl-3-(methanesulfonamido)-2-methoxy-phenyl]carbamoylamino]-1-naphthyl]oxy]-2-pyridyl]amino]-2-methoxy-N-(2-methyl-2-morpholino-propyl)benzamide]
3320	COc1cc(Nc2cc(Oc3ccc(NC(=O)Nc4cc(C(C)(C)C)cc(NS(C)(=O)=O)c4OC)c4ccccc34)ccn2)ccc1S(=O)(=O)N(C)CCN1CCOCC1 [17(o), 1-[5-tert-butyl-3-(methanesulfonamido)-2-methoxy-phenyl]-3-[4-[[2-[3-methoxy-4-[methyl(2-morpholinoethyl)sulfamoyl]anilino]-4-pyridyl]oxy]-1-naphthyl]urea]
1980	COc1cc(Nc2cc(Oc3ccc(NC(=O)Nc4cc(C(C)(C)C)cc(NS(C)(=O)=O)c4OC)c4ccccc34)ccn2)ccc1C(=O)NCCN1CCCC1 [17(q), 4-[[4-[[4-[[5-tert-butyl-3-(methanesulfonamido)-2-methoxy-phenyl]carbamoylamino]-1-naphthyl]oxy]-2-pyridyl]amino]-2-methoxy-N-(2-pyrrolidin-1-ylethyl)benzamide]
4040	COc1cc(Nc2cc(Oc3ccc(NC(=O)Nc4cc(C(C)(C)C)cc(NS(C)(=O)=O)c4OC)c4ccccc34)ccn2)ccc1C(=O)NCCN1CCS(=O)(=O)CC1 [17(r), 4-[[4-[[4-[[5-tert-butyl-3-(methanesulfonamido)-2-methoxy-phenyl]carbamoylamino]-1-naphthyl]oxy]-2-pyridyl]amino]-N-[2-(1,1-dioxo-1,4-thiazinan-4-yl)ethyl]-2-methoxy-benzamide]
394	COc1cc(Nc2cc(Oc3ccc(NC(=O)Nc4cc(C(C)(C)C)cc(NS(C)(=O)=O)c4OC)c4ccccc34)ccn2)ccc1C(=O)NCCCCC(=O)O [17(s), 5-[[4-[[4-[[4-[[5-tert-butyl-3-(methanesulfonamido)-2-methoxy-phenyl]carbamoylamino]-1-naphthyl]oxy]-2-pyridyl]amino]-2-methoxy-benzoyl]amino]pentanoic acid]
140	COc1c(NC(=O)Nc2ccc(Oc3ccnc(Nc4ccc(C(=O)O)cc4)c3)c3ccccc23)cc(C(C)(C)C)cc1NS(C)(=O)=O [17(t), 4-[[4-[[4-[[5-tert-butyl-3-(methanesulfonamido)-2-methoxy-phenyl]carbamoylamino]-1-naphthyl]oxy]-2-pyridyl]amino]benzoic acid]
674	COc1cc(Nc2cc(Oc3ccc(NC(=O)Nc4cc(C(C)(C)C)cc(NS(C)(=O)=O)c4OC)c4ccccc34)ccn2)ccc1C(=O)NCCN1CCNCC1 [17(w), 4-[[4-[[4-[[5-tert-butyl-3-(methanesulfonamido)-2-methoxy-phenyl]carbamoylamino]-1-naphthyl]oxy]-2-pyridyl]amino]-2-methoxy-N-(2-piperazin-1-ylethyl)benzamide]
2020	COc1cc(Nc2cc(Oc3ccc(NC(=O)Nc4cc(C(C)(C)C)cc(C(N)=O)c4OC)c4ccccc34)ccn2)ccc1C(=O)NCCN1CCOCC1 [Example 4, 4-((4-((4-(3-(5-(tert-Butyl)-3-carbamoyl-2-methoxyphenyl)ureido)naphthalen-1-yl)oxy)pyridin-2-yl)amino)-2-methoxy-N-(2-morpholinoethyl)benzamide]
1340	COCCOCCOCCNC(=O)c1ccc(Nc2cc(Oc3ccc(NC(=O)Nc4cc(C(C)(C)C)cc(NS(C)(=O)=O)c4OC)c4ccccc34)ccn2)cc1OC [Example 5, 4-((4-((4-(3-(5-(tert-Butyl)-2-methoxy-3-(methylsulfonamido)phenyl)ureido)naphthalen-1-yl)oxy)pyridin-2-yl)amino)-2-methoxy-N-(2-(2-(2-methoxyethoxy)ethoxy)ethyl)benzamide]
1900	COCCOCCOCCNC(=O)c1ccc(Nc2cc(Oc3ccc(NC(=O)Nc4cc(C(C)(C)C)cc(C(N)=O)c4OC)c4ccccc34)ccn2)cc1OC [Example 6, 4-((4-((4-(3-(5-(tert-Butyl)-3-carbamoyl-2-methoxyphenyl)ureido)naphthalen-1-yl)oxy)pyridin-2-yl)amino)-2-methoxy-N-(2-(2-(2-methoxyethoxy)ethoxy)ethyl)benzamide]
1100	COc1cc(Nc2cc(Oc3ccc(NC(=O)Nc4cc(C(C)(C)C)cc(NS(C)(=O)=O)c4OC)c4ccccc34)ccn2)ccc1C(=O)NCCN1CC[S+]([O-])CC1 [Example 7, 4-((4-((4-(3-(5-(tert-Butyl)-2-methoxy-3-(methylsulfonamido)phenyl)ureido)naphthalen-1-yl)oxy)pyridin-2-yl)amino)-2-methoxy-N-(2-(1-oxidothiomorpholino)ethyl)benzamide]
3770	COCCOCCOCCOc1ccc(Nc2cc(Oc3ccc(NC(=O)Nc4cc(C(C)(C)C)cc(NS(C)(=O)=O)c4OC)c4ccccc34)ccn2)cc1C#N [Example 8, N-(5-(tert-Butyl)-3-(3-(4-((2-((3-cyano-4-(2-(2-(2-methoxyethoxy)ethoxy)ethoxy)phenyl)amino)pyridin-4-yl)oxy)naphthalen-1-yl)ureido)-2-methoxyphenyl)methanesulfonamide]
4340	COc1c(NC(=O)Nc2ccc(Oc3ccnc(Nc4ccc(OCCN5CCOCC5)c(C#N)c4)c3)c3ccccc23)cc(C(C)(C)C)cc1NS(C)(=O)=O [Example 9, N-(5-(tert-Butyl)-3-(3-(4-((2-((3-cyano-4-(2-morpholinoethoxy)phenyl)amino)pyridin-4-yl)oxy)naphthalen-1-yl)ureido)-2-methoxyphenyl)methanesulfonamide]
5560	COc1c(NC(=O)Nc2ccc(Oc3ccnc(Nc4ccc(OCCCN5CCOCC5)c(C#N)c4)c3)c3ccccc23)cc(C(C)(C)C)cc1NS(C)(=O)=O [Example 10, N-(5-(tert-Butyl)-3-(3-(4-((2-((3-cyano-4-(3-morpholinopropxy)phenyl)amino)pyridin-4-yl)oxy)naphthalen-1-yl)ureido)-2-methoxyphenyl)methanesulfonamide]
1300	COCCOCCOCC[S+]([O-])c1ccc(Nc2cc(Oc3ccc(NC(=O)Nc4cc(C(C)(C)C)cc(NS(C)(=O)=O)c4OC)c4ccccc34)ccn2)cc1OC (stereo not drawn) [Example 11, N-(5-(tert-Butyl)-2-methoxy-3-(3-(4-((2-((3-methoxy-4-((2-(2-(2-methoxyethoxy)ethoxy)ethyl)sulfinyl)phenyl)amino)pyridin-4-yl)oxy)naphthalen-1-yl)ureido)phenyl)methanesulfonamide]
2140	COCCOCCOCCS(=O)(=O)c1ccc(Nc2cc(Oc3ccc(NC(=O)Nc4cc(C(C)(C)C)cc(NS(C)(=O)=O)c4OC)c4ccccc34)ccn2)cc1OC [Example 12, 1-[5-tert-Butyl-3-(methanesulfonamido)-2-methoxy-phenyl]-3-[4-[[2-[3-methoxy-4-[2-[2-(2-methoxyethoxy)ethoxy]ethylsulfonyl]anilino]-4-pyridyl]oxy]-1-naphthyl]urea]
3630	COc1cc(Nc2cc(Oc3ccc(NC(=O)Nc4cc(C(C)(C)C)cc(NS(C)(=O)=O)c4OC)c4ccccc34)ccn2)ccc1S(=O)(=O)N(C)CCCN1CCOCC1 [Example 13, 1-[5-tert-Butyl-3-(methanesulfonamido)-2-methoxy-phenyl]-3-[4-[[2-[3-methoxy-4-[methyl(3-morpholinopropyl)sulfamoyl]anilino]-4-pyridyl]oxy]-1-naphthyl]urea]
